Reference: US20230295197A1, “STAT5 and STAT6 Degraders and Uses Thereof” (REGENTS OF THE UNIVERSITY OF MICHICAN, priority 2022, published 2023)
Read-outs that look alike come from different tables or passages of the source.

How the values were obtained:
STAT5 = assay: Immunoblotting (Western blot) analysis of STAT5 degradation efficiency of degraders in treated cells; type: cell-based
Summary of the method: (§1)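 Treatment of cells with degraders at stated concentrations and exposure times comes first. Lysates are then equalised for total protein by BCA, and the proteins are separated, transferred and immunostained for STAT6 or STAT5 alongside GAPDH. Signal is quantified from infrared fluorescence.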

STAT6 = molecular target: T1, STAT6 (Homo sapiens, UniProt P42226); assay: Immunoblotting (Western blot) analysis of STAT6 degradation efficiency of degraders in treated cells; type: cell-based
T1 construct: endogenous in cells; host or cells: MOLM-16, KU-812, SKNO1, MB231, L1236
T1 sequence (P42226 1-847): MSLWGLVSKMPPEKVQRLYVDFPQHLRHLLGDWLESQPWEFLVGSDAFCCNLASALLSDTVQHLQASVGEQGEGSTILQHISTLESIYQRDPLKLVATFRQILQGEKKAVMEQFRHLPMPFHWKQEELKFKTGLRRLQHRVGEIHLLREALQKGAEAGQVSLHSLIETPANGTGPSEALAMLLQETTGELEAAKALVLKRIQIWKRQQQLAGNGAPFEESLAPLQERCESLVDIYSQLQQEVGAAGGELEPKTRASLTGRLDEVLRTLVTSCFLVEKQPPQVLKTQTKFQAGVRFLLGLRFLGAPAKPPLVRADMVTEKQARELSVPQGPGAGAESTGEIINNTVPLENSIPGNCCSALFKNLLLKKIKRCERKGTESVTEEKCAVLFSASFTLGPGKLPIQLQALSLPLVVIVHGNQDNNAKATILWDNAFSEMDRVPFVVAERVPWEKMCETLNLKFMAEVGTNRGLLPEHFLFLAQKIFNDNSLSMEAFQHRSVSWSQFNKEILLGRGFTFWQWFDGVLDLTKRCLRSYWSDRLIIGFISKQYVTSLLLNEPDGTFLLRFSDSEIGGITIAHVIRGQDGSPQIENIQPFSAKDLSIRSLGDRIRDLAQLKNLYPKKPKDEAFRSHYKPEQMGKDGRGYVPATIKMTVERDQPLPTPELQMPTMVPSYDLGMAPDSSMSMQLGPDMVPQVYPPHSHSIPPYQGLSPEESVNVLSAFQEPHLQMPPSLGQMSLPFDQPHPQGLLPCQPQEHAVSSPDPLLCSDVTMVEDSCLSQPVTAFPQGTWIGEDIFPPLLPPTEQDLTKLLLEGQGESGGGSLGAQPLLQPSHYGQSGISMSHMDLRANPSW
Summary of the method: as §1

[1] = KU-812 cells, read-out: DC50 S5 KU-812
[2] = MOLM-16 cells, class symbols, read-out: DC50 S5 MOLM-16
[3] = SKNO1 cells, read-out: DC50 S5 SKNO1
[4] = MOLM-16 cells, numeric bound, read-out: DC50 S6 MOLM-16
[5] = MB231 cells, read-out: DC50 S6 MB231
[6] = MOLM-16 cells, class symbols, read-out: DC50 S6 MOLM-16
[7] = MOLM-16 cells, numeric bound, read-out: DC50 S5 MOLM-16

Row | Compound | DC50 (STAT5; [1]) | DC50 (STAT5; [2]) | DC50 (STAT5; [3]) | DC50 (STAT6; [4]) | DC50 (STAT5; [7]) | also measured
1 | CN(CCCC#Cc1cccc2c1CN(C1CCC(=O)NC1=O)C2=O)C(=O)CCN(C(=O)[C@@H]1CCCN1C(=O)[C@@H](NC(=O)c1cc2cc(C(F)(F)P(=O)(O)O)ccc2s1)C(C)(C)C)c1ccc(Br)cc1 (stereo partly drawn) [Compound 665, ((2-(((2S)-1-((2S)-2-((4-bromophenyl)(3-((5-(2-(2,6-dioxopiperidin-3-yl)-1-oxoisoindolin-4-yl)pent-4-yn-1-yl)(methyl)amino)-3-oxopropyl)carbamoyl)pyrrolidin-1-yl)-3,3-dimethyl-1-oxobutan-2-yl)carbamoyl)benzo[b]thiophen-5-yl)difluoromethyl)phosphonic acid] | 100 to 1000 nM | < 100 nM | 100 to 1000 nM | > 300 nM |  | 
2 | CC(C)(C)[C@H](NC(=O)c1cc2cc(C(F)(F)P(=O)(O)O)ccc2s1)C(=O)N1CCC[C@H]1C(=O)N(CCC(=O)NCCCCCCC#Cc1cccc2c1CN(C1CCC(=O)NC1=O)C2=O)c1ccc(Br)cc1 (stereo partly drawn) [Compound 404, ((2-(((2S)-1-((2S)-2-((4-bromophenyl)(3-((8-(2-(2,6-dioxopiperidin-3-yl)-1-oxoisoindolin-4-yl)oct-7-yn-1-yl)amino)-3-oxopropyl)carbamoyl)pyrrolidin-1-yl)-3,3-dimethyl-1-oxobutan-2-yl)carbamoyl)benzo[b]thiophen-5-yl)difluoromethyl)phosphonic acid] | 100 to 1000 nM | 100 to 1000 nM | 1000 to 10000 nM |  |  | DC50 (STAT6; [5]): > 10000 nM; DC50 (STAT6; [6]): > 10000 nM
3 | CC(C)(C)[C@H](NC(=O)c1cc2cc(C(F)(F)P(=O)(O)O)ccc2s1)C(=O)N1C[C@H](NC(=O)CCCCCC#Cc2ccc3c(c2)CN(C2CCC(=O)NC2=O)C3=O)C[C@H]1C(=O)Nc1ncc(-c2ccccc2)s1 (stereo partly drawn) [Compound 568, ((2-(((2S)-1-((2S,4R)-4-(8-(2-(2,6-dioxopiperidin-3-yl)-1-oxoisoindolin-5-yl)oct-7-ynamido)-2-((5-phenylthiazol-2-yl)carbamoyl)pyrrolidin-1-yl)-3,3-dimethyl-1-oxobutan-2-yl)carbamoyl)benzo[b]thiophen-5-yl)difluoromethyl)phosphonic acid] |  |  |  | > 300 nM | > 300 nM | 
4 | CC(C)(C)C(=O)OCOP(=O)(O)C(F)(F)c1ccc2sc(C(=O)N[C@H](C(=O)N3CCC[C@H]3C(=O)N(CCC(=O)NCCCC#Cc3cccc4c3CN(C3CCC(=O)NC3=O)C4=O)c3ccc(Br)cc3)C(C)(C)C)cc2c1 (stereo partly drawn) [Compound 653, ((((2-(((2S)-1-((2S)-2-((4-bromophenyl)(3-((5-(2-(2,6-dioxopiperidin-3-yl)-1-oxoisoindolin-4-yl)pent-4-yn-1-yl)amino)-3-oxopropyl)carbamoyl)pyrrolidin-1-yl)-3,3-dimethyl-1-oxobutan-2-yl)carbamoyl)benzo[b]thiophen-5-yl)difluoromethyl)(hydroxy)phosphoryl)oxy)methyl pivalate] |  |  |  |  | > 300 nM | DC50 (STAT6; [6]): < 100 nM
5 | CC(C)(C)[C@H](NC(=O)c1cc2cc(C(F)(F)P(=O)(O)O)ccc2s1)C(=O)N1CCC[C@H]1C(=O)N(CCCCCCCC#Cc1cccc2c1CN(C1CCC(=O)NC1=O)C2=O)c1ccc(-c2nccs2)cc1 (stereo partly drawn) [Compound 670, ((2-(((2S)-1-((2S)-2-((9-(2-(2,6-dioxopiperidin-3-yl)-1-oxoisoindolin-4-yl)non-8-yn-1-yl)(4-(thiazol-2-yl)phenyl)carbamoyl)pyrrolidin-1-yl)-3,3-dimethyl-1-oxobutan-2-yl)carbamoyl)benzo[b]thiophen-5-yl)difluoromethyl)phosphonic acid] |  |  | > 10000 nM | > 300 nM | > 300 nM | 
6 | CC(C)(C)[C@H](NC(=O)c1cc2cc(C(F)(F)P(=O)(O)O)ccc2s1)C(=O)N1CCC[C@H]1C(=O)N(CCC(=O)NCCCC#Cc1cccc2c1CN(C1CCC(=O)NC1=O)C2=O)c1ccc2sccc2c1 (stereo partly drawn) [Compound 650, ((2-(((2S)-1-((2S)-2-(benzo[b]thiophen-5-yl(3-((5-(2-(2,6-dioxopiperidin-3-yl)-1-oxoisoindolin-4-yl)pent-4-yn-1-yl)amino)-3-oxopropyl)carbamoyl)pyrrolidin-1-yl)-3,3-dimethyl-1-oxobutan-2-yl)carbamoyl)benzo[b]thiophen-5-yl)difluoromethyl)phosphonic acid] | 100 to 1000 nM | < 100 nM | 100 to 1000 nM | > 300 nM |  | 
7 | Cc1ncsc1-c1ccc([C@H](CC(=O)NCCCCCCCC(=O)N[C@@H]2C[C@@H](C(=O)Nc3ncc(-c4ccccc4)s3)N(C(=O)[C@@H](NC(=O)c3cc4cc(C(F)(F)P(=O)(O)O)ccc4s3)C(C)(C)C)C2)NC(=O)[C@@H]2C[C@@H](O)CN2C(=O)[C@@H](NC(=O)C2(F)CC2)C(C)(C)C)cc1 [Compound 577, (difluoro(2-(((S)-1-((2S,4R)-4-(8-((S)-3-((2S,4R)-1-((S)-2-(1-fluorocyclopropane-1-carboxamido)-3,3-dimethylbutanoyl)-4-hydroxypyrrolidine-2-carboxamido)-3-(4-(4-methylthiazol-5-yl)phenyl)propanamido)octanamido)-2-((5-phenylthiazol-2-yl)carbamoyl)pyrrolidin-1-yl)-3,3-dimethyl-1-oxobutan-2-yl)carbamoyl)benzo[b]thiophen-5-yl)methyl)phosphonic acid] |  |  |  | > 300 nM | > 300 nM | 
8 | CN(CCCC#Cc1cccc2c1CN(C1CCC(=O)NC1=O)C2=O)C(=O)CCN(C(=O)[C@@H]1CCCN1C(=O)[C@@H](NC(=O)c1cc2cc(C(F)(F)P(=O)(O)OCOC(=O)C(C)(C)C)ccc2s1)C(C)(C)C)c1ccc2scnc2c1 (stereo partly drawn) [Compound 676, ((((2-(((2S)-1-((2S)-2-(benzo[d]thiazol-5-yl(3-((5-(2-(2,6-dioxopiperidin-3-yl)-1-oxoisoindolin-4-yl)pent-4-yn-1-yl)(methyl)amino)-3-oxopropyl)carbamoyl)pyrrolidin-1-yl)-3,3-dimethyl-1-oxobutan-2-yl)carbamoyl)benzo[b]thiophen-5-yl)difluoromethyl)(hydroxy)phosphoryl)oxy)methyl pivalate] |  | < 100 nM |  | > 300 nM |  | 
9 | CN(C(=O)[C@@H]1C[C@@H](OCC(=O)NCCCC#Cc2cccc3c2CN(C2CCC(=O)NC2=O)C3=O)CN1C(=O)[C@@H](NC(=O)c1cc2cc(C(F)(F)P(=O)(O)O)ccc2s1)C(C)(C)C)c1ccc(Br)cc1 (stereo partly drawn) [Compound 411, ((2-(((2S)-1-((2S,4R)-2-((4-bromophenyl)(methyl)carbamoyl)-4-(2-((5-(2-(2,6-dioxopiperidin-3-yl)-1-oxoisoindolin-4-yl)pent-4-yn-1-yl)amino)-2-oxoethoxy)pyrrolidin-1-yl)-3,3-dimethyl-1-oxobutan-2-yl)carbamoyl)benzo[b]thiophen-5-yl)difluoromethyl)phosphonic acid] |  |  | > 10000 nM |  |  | DC50 (STAT6; L1236 cells, read-out: DC50 S6 L1236): > 10000 nM; DC50 (STAT6; [5]): > 10000 nM
10 | CN(CCCC#Cc1cccc2c1CN(C1CCC(=O)NC1=O)C2=O)C(=O)CCN(C(=O)[C@@H]1CCCN1C(=O)[C@@H](NC(=O)c1cc2cc(C(F)(F)P(=O)(O)O)ccc2s1)C(C)(C)C)c1ccc(-c2nccs2)cc1 (stereo partly drawn) [Compound 681, ((2-(((2S)-1-((2S)-2-((3-((5-(2-(2,6-Dioxopiperidin-3-yl)-1-oxoisoindolin-4-yl)pent-4-yn-1-yl)(methyl)amino)-3-oxopropyl)(4-(thiazol-2-yl)phenyl)carbamoyl)pyrrolidin-1-yl)-3,3-dimethyl-1-oxobutan-2-yl)carbamoyl)benzo[b]thiophen-5-yl)difluoromethyl)phosphonic acid] | 100 to 1000 nM | < 100 nM | 100 to 1000 nM |  |  | DC50 (STAT6; KU-812 cells, read-out: DC50 S6 KU-812): > 10000 nM; DC50 (STAT6; [6]): > 10000 nM; DC50 (STAT6; SKNO1 cells, read-out: DC50 S6 SKNO1): > 10000 nM
11 | CC(C)(C)[C@H](NC(=O)c1cc2cc(C(F)(F)P(=O)(O)O)ccc2s1)C(=O)N1CCC[C@H]1C(=O)N(CCC(=O)NCCCC#Cc1cccc2c1CN(C1CCC(=O)NC1=O)C2=O)c1cccc2sccc12 (stereo partly drawn) [Compound 660, ((2-(((2S)-1-((2S)-2-(benzo[b]thiophen-4-yl(3-((5-(2-(2,6-dioxopiperidin-3-yl)-1-oxoisoindolin-4-yl)pent-4-yn-1-yl)amino)-3-oxopropyl)carbamoyl)pyrrolidin-1-yl)-3,3-dimethyl-1-oxobutan-2-yl)carbamoyl)benzo[b]thiophen-5-yl)difluoromethyl)phosphonic acid] |  |  | 1000 to 10000 nM | > 300 nM | > 300 nM | 
